Key:
Mus musculus [1] = organism: Mus musculus; assay: Effect in increasing life span of mice bearing L1210 leukemia; assay type: functional
Mus musculus [2] = organism: Mus musculus; assay: Maximally tolerated dose in mice bearing L1210 leukemia.; assay type: functional
L1210 = assay: Inhibitory activity […] bearing L1210 leukemia; assay type: functional, cell-based, Mus musculus
Mus musculus [3] = organism: Mus musculus; assay: Compound tested for maximally tolerated dose in mice bearing L1210 leukemia; No toxicity was observed; assay type: functional

SMILES | ILS (Mus musculus [1]) | MTD (Mus musculus [2]) | IC50 (L1210; Mus musculus, L1210) | MTD (Mus musculus [3]) | IC50 (L1210; l1210)
CC[C@@]1(O)C(=O)OCc2c1cc1n(c2=O)Cc2cc3c(CN(C)c4ccccc4)c(O)ccc3nc2-1 | 138% | 83 µM/kg | 69 nM | – | –
CC[C@@]1(O)C(=O)OCc2c1cc1n(c2=O)Cc2cc3c(C=O)c(O)ccc3nc2-1 | >75% | – | 260 nM | 102 µM/kg | –
CCOCc1c(O)ccc2nc3c(cc12)Cn1c-3cc2c(c1=O)COC(=O)[C@]2(O)CC | 125% | 56 µM/kg | 48 nM | – | –
CC[C@@]1(O)C(=O)OCc2c1cc1n(c2=O)Cc2cc3c(CN(C)C)cccc3nc2-1 | 88% | 29 µM/kg | 65 nM | – | –
CC[C@@]1(O)C(=O)OCc2c1cc1n(c2=O)Cc2cc3c(CC#N)c(O)ccc3nc2-1 | >200% | 28 µM/kg | 400 nM | – | –
CCC1(O)C(=O)OCc2c1cc1n(c2=O)Cc2c-1nc1ccccc1c2CCN(C)C(=O)OCc1ccccc1 (stereo not drawn) | 62% | 128 µM/kg | 62 nM | – | –
CC[C@@]1(O)C(=O)OCc2c1cc1n(c2=O)Cc2cc3c(COCCN(C)C)c(O)ccc3nc2-1 | 188% | 50 µM/kg | 180 nM | – | –
CCC1(O)C(=O)OCc2c1cc1n(c2=O)Cc2c-1nc1ccc(CC#N)cc1c2C (stereo not drawn) | 106% | 6.4 µM/kg | 7.5 nM | – | –
CC[C@@]1(O)C(=O)OCc2c1cc1n(c2=O)Cc2cc3c(CCN)c(O)ccc3nc2-1 | 75% | 210 µM/kg | 360 nM | – | –
CC[C@@]1(O)C(=O)OCc2c1cc1n(c2=O)Cc2cc3cc(C#N)ccc3nc2-1 | 100% | 7.8 µM/kg | 80 nM | – | –
CC[C@@]1(O)C(=O)OCc2c1cc1n(c2=O)Cc2cc3c(C)cccc3nc2-1 | >200% | 15 µM/kg | 70 nM | – | –
CC[C@@]1(O)C(=O)OCc2c1cc1n(c2=O)Cc2cc3c(C[N+](C)(C)C)c(O)ccc3nc2-1 | >200% | 68 µM/kg | 150 nM | – | –
CC[C@@]1(O)C(=O)OCc2c1cc1n(c2=O)Cc2cc3cc(P(=O)(O)O)ccc3nc2-1 | – | – | 26000 nM | 155 µM/kg | –
CC[C@@]1(O)C(=O)OCc2c1cc1n(c2=O)Cc2cc3c(CNCCN(C)C)c(O)ccc3nc2-1 | >94% | – | 49 nM | 78 µM/kg | –
CC[C@@]1(O)C(=O)OCc2c1cc1n(c2=O)Cc2cc3cc(CN)ccc3nc2-1 | 112% | 160 µM/kg | 90 nM | – | –
CC[C@@]1(O)C(=O)OCc2c1cc1n(c2=O)Cc2cc3c(CSCCN(C)C)c(O)ccc3nc2-1 | >112% | – | 12 nM | 76 µM/kg | –

SMILES | ILS (Mus musculus [1]) | MTD (Mus musculus [2]) | IC50 (L1210; Mus musculus, L1210) | MTD (Mus musculus [3]) | IC50 (L1210; l1210)
CC[C@@]1(O)C(=O)OCc2c1cc1n(c2=O)Cc2cc3c(CN4CCOCC4)c(O)ccc3nc2-1 | 83% | 190 µM/kg | 370 nM | – | –
CCC1(O)C(=O)OCc2c1cc1n(c2=O)Cc2c-1nc1ccc(CCN)cc1c2C (stereo not drawn) | >33% | 68 µM/kg | 29 nM | – | –
CC[C@@]1(O)C(=O)OCc2c1cc1n(c2=O)Cc2cc3c(CNC4CC4)c(O)ccc3nc2-1 | 131% | 48 µM/kg | 130 nM | – | –
CC[C@@]1(O)C(=O)OCc2c1cc1n(c2=O)Cc2cc3c(CN4CCOCC4)cccc3nc2-1 | 144% | 29 µM/kg | 690 nM | – | –
CCC1(O)C(=O)OCc2c1cc1n(c2=O)Cc2c-1nc1ccccc1c2CCNC (stereo not drawn) | 43% | 122 µM/kg | 44 nM | – | –
CC[C@@]1(O)C(=O)OCc2c1cc1n(c2=O)Cc2cc3c(CN4CCN(C)CC4)c(O)ccc3nc2-1 | >200% | – | 72 nM | 74 µM/kg | –
CC[C@@]1(O)C(=O)OCc2c1cc1n(c2=O)Cc2cc3c(CNC4CCCCC4)c(O)ccc3nc2-1 | >200% | 47 µM/kg | 56 nM | – | –
CC[C@@]1(O)C(=O)OCc2c1cc1n(c2=O)Cc2cc3c(CN4CCC(N5CCCCC5)CC4)c(O)ccc3nc2-1 | >44% | – | 270 nM | 77 µM/kg | –
CC[C@@]1(O)C(=O)OCc2c1cc1n(c2=O)Cc2cc3c(CNCCO)c(O)ccc3nc2-1 | 62% | 82 µM/kg | 250 nM | – | –
CCc1c2c(nc3ccc(O)cc13)-c1cc3c(c(=O)n1C2)COC(=O)[C@]3(O)CC [7-ETHYL-10-HYDROXYCAMPTOTHECIN] | 144% | 86 µM/kg | – | – | –
CC[C@@]1(O)C(=O)OCc2c1cc1n(c2=O)Cc2cc3c(N)cccc3nc2-1 [9-AMINOCAMPTOTHECIN] | 94% | 8.9 µM/kg | 12 nM | – | –
CC[C@@]1(O)C(=O)OCc2c1cc1n(c2=O)Cc2cc3ccccc3nc2-1 [CAMPTOTHECIN] | 118% | 22 µM/kg | 23 nM | – | –
CC[C@@]1(O)C(=O)OCc2c1cc1n(c2=O)Cc2cc3cc(O)ccc3nc2-1 [HYDROXYCAMPTOTHECIN] | 78% | 21 µM/kg | – | – | 18 nM
CCc1c2c(nc3ccc(OC(=O)N4CCC(N5CCCCC5)CC4)cc13)-c1cc3c(c(=O)n1C2)COC(=O)[C@]3(O)CC [IRINOTECAN] | – | 245 µM/kg | – | – | –
CC[C@@]1(O)C(=O)OCc2c1cc1n(c2=O)Cc2cc3c(CN(C)C)c(O)ccc3nc2-1 [TOPOTECAN] | 173% | 30 µM/kg | – | – | –

Source: ChEMBL document CHEMBL1125761, “Synthesis of water-soluble (aminoalkyl)camptothecin analogues: inhibition of topoisomerase I and antitumor activity” (J Med Chem, 1991)
